The source of these data is patent US11046726B2, “Nucleotide analogues” (QIAGEN SCIENCES, LLC, priority 2015, dated 2021).

The nature of this test: Cleavage experiments with a variety of cleavage agents, reaction mixtures analyzed by RP-HPLC (FIG. 77, 78A-78B). The note with it: after 10 minutes of incubation with cleave reagent. The text has this: In addition to these a variety of suitable cleaving agents can be used such as Bis(2-mercaptoethyl)sulfone (BMS) and N,N′-dimethyl-N,N′-bis(mercaptoacetyl)hydrazine (DMH) (Singh et al., Bioorg. Chem., 22, 109-115 (1994). Reactions can be further catalyzed by inclusion of selenols (Singh et al. Anal Biochem. 1995 Nov. 20; 232(1):86-91 [18]). Borohydrides, such as sodium borohydrides can also be used for this purpose (Stahl et al., Anal. Chem., 1957, 29 (1), pp 151 155 [19]) as well as ascorbic acid (Nardai et al., J. Biol. Chem. 276, 8825-8828 (2001)). In addition, enzymatic methods for cleavage of disulfide bonds ae also well known such as disulfide and thioreductase and can be used with compounds of the present invention (Holmgren et. al., Methods in Enzymology, Volume 252, 1995, Pages 199-208 [21]).
Turning to `NCCS` [cysteamine], the “cleavage of linker and 3′-protective group by cleavage agent” value (shortened to “cleavage”) is “full cleavage of both linker and the 3′-protective groups”.

As to `N[C@@H](CS)C(=O)O` [L-cysteine], the “cleavage” value is “full cleavage of both linker and the 3′-protective groups”.

Regarding `OC(=S)CCC(O)=S` [dithiosuccinic acid], the “cleavage” value was “selective cleavage of 3′-O-protective group”.

`O[C@H](CS)[C@H](O)CS` (racemic) [DTT, dithiothreitol]: the “cleavage” value was “full cleavage of both linker and the 3′-protective groups”.
